Activity calls are given as the source filed them. The rule behind the calls is not given here.
Experiments:
[1] = Cytotoxicity against human CaSki cells after 96 hrs by CCK-8 assay; type: functional, cell-based; settings: Ca-Ski
[2] = biological target: Glycogen synthase kinase-3 beta (Homo sapiens, UniProt P49841); assay: Inhibition of recombinant GSK-3 beta (unknown origin) after 60 mins by z'-lyte kinase assay
LoVo = assay: Cytotoxicity against human LoVo cells after 96 hrs by CCK-8 assay; type: functional, cell-based
[3] = biological target: Vascular endothelial growth factor receptor 3 (Homo sapiens, UniProt P35916); assay: Inhibition of recombinant FLT4 (unknown origin) after 60 mins by z'-lyte kinase assay
Sequence of Vascular endothelial growth factor receptor 3 (P35916 whole entry): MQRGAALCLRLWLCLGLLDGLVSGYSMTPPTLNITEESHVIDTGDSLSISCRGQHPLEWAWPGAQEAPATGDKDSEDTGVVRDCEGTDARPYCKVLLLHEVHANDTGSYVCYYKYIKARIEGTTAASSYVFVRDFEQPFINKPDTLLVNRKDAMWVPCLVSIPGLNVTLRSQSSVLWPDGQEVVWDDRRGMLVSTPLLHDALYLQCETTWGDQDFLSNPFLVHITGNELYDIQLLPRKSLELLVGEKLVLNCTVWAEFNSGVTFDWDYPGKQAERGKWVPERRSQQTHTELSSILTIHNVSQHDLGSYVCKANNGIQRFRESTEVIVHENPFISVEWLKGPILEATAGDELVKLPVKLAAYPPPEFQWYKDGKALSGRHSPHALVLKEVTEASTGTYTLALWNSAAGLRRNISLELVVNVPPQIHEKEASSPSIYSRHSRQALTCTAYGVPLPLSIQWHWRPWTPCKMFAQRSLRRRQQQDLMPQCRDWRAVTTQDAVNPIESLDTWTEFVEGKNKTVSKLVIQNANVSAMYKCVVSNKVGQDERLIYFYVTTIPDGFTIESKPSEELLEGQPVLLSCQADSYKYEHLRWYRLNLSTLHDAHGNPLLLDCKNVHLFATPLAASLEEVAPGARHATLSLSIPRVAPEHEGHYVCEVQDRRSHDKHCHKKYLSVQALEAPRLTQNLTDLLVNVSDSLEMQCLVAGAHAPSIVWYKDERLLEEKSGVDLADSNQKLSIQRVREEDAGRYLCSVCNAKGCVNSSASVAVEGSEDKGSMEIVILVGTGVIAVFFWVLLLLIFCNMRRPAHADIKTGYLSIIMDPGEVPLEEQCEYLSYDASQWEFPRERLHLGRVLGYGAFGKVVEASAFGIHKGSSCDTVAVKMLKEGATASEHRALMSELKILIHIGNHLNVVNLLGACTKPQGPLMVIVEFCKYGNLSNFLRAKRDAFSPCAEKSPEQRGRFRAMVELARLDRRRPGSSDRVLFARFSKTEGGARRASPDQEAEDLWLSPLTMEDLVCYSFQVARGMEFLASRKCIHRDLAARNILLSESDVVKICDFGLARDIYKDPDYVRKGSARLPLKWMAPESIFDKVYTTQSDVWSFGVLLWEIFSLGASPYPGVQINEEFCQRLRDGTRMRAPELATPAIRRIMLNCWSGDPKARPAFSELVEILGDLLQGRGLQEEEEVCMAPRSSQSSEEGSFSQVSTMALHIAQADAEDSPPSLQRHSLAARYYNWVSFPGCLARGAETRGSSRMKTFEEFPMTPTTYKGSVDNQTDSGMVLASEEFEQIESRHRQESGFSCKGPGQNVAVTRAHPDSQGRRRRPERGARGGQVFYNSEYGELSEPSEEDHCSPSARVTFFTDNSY

Mus musculus [4] = assay: Acute toxicity in mouse up to 1000 mg/kg, ip qd administered for 2 weeks; type: organism-based; design: dose 1000 mg/kg, route intraperitoneal; settings: in vivo, 336 h
[5] = biological target: Vascular endothelial growth factor receptor 1 (Homo sapiens, UniProt P17948); assay: Inhibition of recombinant FLT1 (unknown origin) after 60 mins by z'-lyte kinase assay
Sequence of Vascular endothelial growth factor receptor 1 (P17948 whole entry): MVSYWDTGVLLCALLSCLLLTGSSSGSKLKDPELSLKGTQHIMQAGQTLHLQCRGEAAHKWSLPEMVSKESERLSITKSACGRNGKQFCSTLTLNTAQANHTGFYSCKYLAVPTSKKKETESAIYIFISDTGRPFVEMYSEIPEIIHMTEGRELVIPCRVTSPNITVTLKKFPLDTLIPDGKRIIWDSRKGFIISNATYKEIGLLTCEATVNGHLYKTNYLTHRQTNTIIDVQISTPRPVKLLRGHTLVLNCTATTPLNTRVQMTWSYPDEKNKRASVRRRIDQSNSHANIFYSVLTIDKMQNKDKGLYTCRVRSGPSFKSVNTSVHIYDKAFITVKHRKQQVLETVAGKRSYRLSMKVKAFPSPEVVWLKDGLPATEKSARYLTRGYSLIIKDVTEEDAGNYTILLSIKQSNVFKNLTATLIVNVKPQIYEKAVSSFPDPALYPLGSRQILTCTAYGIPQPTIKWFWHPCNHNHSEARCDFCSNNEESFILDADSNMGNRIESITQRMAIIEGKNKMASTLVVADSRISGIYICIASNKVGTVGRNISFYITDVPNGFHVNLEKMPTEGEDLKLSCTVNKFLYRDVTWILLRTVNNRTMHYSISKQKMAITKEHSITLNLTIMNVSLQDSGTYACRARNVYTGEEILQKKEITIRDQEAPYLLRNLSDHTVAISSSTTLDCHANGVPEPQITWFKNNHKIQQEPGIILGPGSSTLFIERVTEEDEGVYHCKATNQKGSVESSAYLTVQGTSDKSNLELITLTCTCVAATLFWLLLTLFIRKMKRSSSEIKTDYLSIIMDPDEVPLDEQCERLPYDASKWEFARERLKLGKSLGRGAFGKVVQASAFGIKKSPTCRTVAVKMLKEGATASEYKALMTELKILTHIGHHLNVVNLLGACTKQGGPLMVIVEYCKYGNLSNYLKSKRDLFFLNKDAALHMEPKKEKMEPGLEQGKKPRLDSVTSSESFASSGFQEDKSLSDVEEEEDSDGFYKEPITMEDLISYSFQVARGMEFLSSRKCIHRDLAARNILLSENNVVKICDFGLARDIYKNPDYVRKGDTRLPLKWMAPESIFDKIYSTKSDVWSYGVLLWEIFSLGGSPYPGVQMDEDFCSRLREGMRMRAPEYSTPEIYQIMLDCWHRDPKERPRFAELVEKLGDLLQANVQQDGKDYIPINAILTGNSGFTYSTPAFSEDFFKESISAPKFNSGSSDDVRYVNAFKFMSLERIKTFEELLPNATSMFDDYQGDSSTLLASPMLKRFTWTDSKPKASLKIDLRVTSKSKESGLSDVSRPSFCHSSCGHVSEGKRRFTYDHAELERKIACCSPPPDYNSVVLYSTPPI

Aurora kinase B [6] = biological target: T1, Aurora kinase B (Homo sapiens, UniProt Q96GD4); assay: Inhibition of AURKB in human HeLa cells assessed as reduction in histone H3 expression at 5 to 20 uM after 48 hrs by Western blotting analysis; type: cell-based
T1 sequence (Q96GD4 whole entry): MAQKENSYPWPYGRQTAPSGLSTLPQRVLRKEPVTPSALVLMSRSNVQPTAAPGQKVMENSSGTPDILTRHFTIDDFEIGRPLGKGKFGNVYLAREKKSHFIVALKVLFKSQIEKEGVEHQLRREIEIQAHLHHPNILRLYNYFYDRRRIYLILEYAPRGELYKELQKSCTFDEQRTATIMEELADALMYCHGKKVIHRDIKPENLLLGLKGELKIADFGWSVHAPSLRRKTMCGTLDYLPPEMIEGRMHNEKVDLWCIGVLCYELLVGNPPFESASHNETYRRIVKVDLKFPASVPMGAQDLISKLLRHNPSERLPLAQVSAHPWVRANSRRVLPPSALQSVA

Mus musculus [7] = assay: Toxicity in nude mouse xenografted with human QGY7401 cells at 10 to 20 mg/kg, ip qd administered for 14 days measured on day 18; type: organism-based; design: dose 10-20 mg/kg, route intraperitoneal; settings: in vivo, 336 h
SMMC-7721 = assay: Cytotoxicity against human SMMC7721 cells after 96 hrs by CCK-8 assay; type: functional, cell-based; settings: SMMC-7721, 96 h
MCF7 = assay: Cytotoxicity against human MCF7 cells after 96 hrs by CCK-8 assay; type: functional, cell-based; settings: MCF7, 96 h
[8] = Cytotoxicity against human SPC-A1 cells after 96 hrs by CCK-8 assay; type: functional, cell-based; settings: SPCA1, 96 h
Aurora kinase B [9] = biological target: T1, Aurora kinase B; assay: Inhibition of AURKB in human SW620 cells assessed as reduction in histone H3 phosphorylation at 5 to 20 uM after 48 hrs by Western blotting analysis; type: cell-based; settings: SW-620
Aurora kinase B [10] = biological target: T1, Aurora kinase B; assay: Inhibition of AURKB in human HepG2 cells assessed as reduction in histone H3 phosphorylation at 20 uM after 48 hrs by Western blotting analysis; type: cell-based
Homo sapiens [11] = assay: Inhibition of histone H3 phosphorylation in human QGY7401 cells xenografted in nude mouse at 10 to 20 mg/kg, ip qd administered for 14 days by hematoxylin and eosin staining-based microscopic analysis; type: functional, organism-based
[12] = Antitumor activity against human QGY7401 cells xenografted in nude mouse assessed as reduction in tumor weight at 10 mg/kg, ip qd administered for 14 days measured on day 18 (reference value: 2.24 +/- 0.20 g); type: functional; settings: route intraperitoneal
HeLa [13] = assay: Cytotoxicity against human HeLa cells after 96 hrs by CCK-8 assay; type: functional, cell-based
Homo sapiens [14] = assay: Inhibition of histone H3 phosphorylation in human QGY7401 cells xenografted in ip dosed nude mouse administered qd for 14 days by Hematoxylin and eosin staining-based microscopic analysis; type: functional, organism-based
HepG2 [15] = assay: Cell cycle arrest in human HepG2 cells assessed as accumulation at G2/M phase at 20 uM after 48 hrs by flow cytometry relative to control; type: functional
HeLa [16] = assay: Growth inhibition of human HeLa cells at 5 to 20 uM after 96 hrs by CCK-8 assay; type: functional, cell-based
[17] = biological target: Mitogen-activated protein kinase 1 (Homo sapiens, UniProt P28482); assay: Inhibition of recombinant MAPK1 (unknown origin) after 60 mins by z'-lyte kinase assay
Sequence of Mitogen-activated protein kinase 1 (P28482 whole entry): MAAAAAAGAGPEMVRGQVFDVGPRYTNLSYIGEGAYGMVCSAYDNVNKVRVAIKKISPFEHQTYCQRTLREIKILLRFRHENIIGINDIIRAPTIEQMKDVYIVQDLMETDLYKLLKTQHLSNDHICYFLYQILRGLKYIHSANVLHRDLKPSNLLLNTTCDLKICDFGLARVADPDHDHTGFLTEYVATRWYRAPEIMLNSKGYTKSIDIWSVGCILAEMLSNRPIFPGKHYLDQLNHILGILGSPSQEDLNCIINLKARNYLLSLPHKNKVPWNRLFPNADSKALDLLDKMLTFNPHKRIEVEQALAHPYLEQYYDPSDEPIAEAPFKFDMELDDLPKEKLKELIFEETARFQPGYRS

[18] = biological target: Protein kinase C alpha type (Homo sapiens, UniProt P17252); assay: Inhibition of recombinant PKC alpha (unknown origin) after 60 mins by z'-lyte kinase assay
Aurora kinase B [19] = biological target: T1, Aurora kinase B; assay: Binding affinity to AURKB (unknown origin)
Aurora kinase B [20] = biological target: T1, Aurora kinase B; assay: Inhibition of AURKB in human HepG cells assessed as reduction in histone H3 phosphorylation at 5 to 20 uM after 48 hrs by […] analysis; type: cell-based
[21] = Antitumor activity against human QGY7401 cells xenografted in nude mouse assessed as reduction in body weight at 20 mg/kg, ip qd administered for 14 days measured on day 18 (reference value: 24.13 +/- 2.18 g); type: functional; settings: route intraperitoneal
Aurora kinase B [22] = biological target: T1, Aurora kinase B; assay: Inhibition of AURKB in human SW620 cells assessed as reduction in Aurora B expression expression at 5 to 20 uM after 48 hrs by Western blotting analysis; type: cell-based; settings: SW-620
Aurora kinase B [23] = biological target: T1, Aurora kinase B; assay: Inhibition of recombinant AURKB (unknown origin) after 60 mins by z'-lyte kinase assay
SW-620 = assay: Cytotoxicity against human SW620 cells after 96 hrs by CCK-8 assay; type: functional, cell-based; settings: SW-620, 96 h
[24] = Cytotoxicity against human PANC1 cells after 96 hrs by CCK-8 assay; type: functional, cell-based; settings: PANC-1, 96 h
[25] = biological target: Casein kinase I isoform alpha (Homo sapiens, UniProt P48729); assay: Inhibition of recombinant CK1 alpha1 (unknown origin) after 60 mins by z'-lyte kinase assay
Sequence of Casein kinase I isoform alpha (P48729 whole entry, canonical isoform): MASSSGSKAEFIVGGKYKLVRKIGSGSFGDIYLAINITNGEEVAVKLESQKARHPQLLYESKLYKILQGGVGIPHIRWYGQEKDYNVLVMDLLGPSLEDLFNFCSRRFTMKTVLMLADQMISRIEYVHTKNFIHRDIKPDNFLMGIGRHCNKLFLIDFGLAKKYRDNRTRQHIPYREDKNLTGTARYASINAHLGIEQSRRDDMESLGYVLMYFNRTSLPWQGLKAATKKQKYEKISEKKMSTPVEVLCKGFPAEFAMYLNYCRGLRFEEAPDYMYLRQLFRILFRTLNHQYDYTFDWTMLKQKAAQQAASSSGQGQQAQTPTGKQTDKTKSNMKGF

HeLa [26] = assay: Cell cycle arrest in human HeLa cells assessed as accumulation at G2/M phase at 20 uM after 48 hrs by flow cytometry relative to control; type: functional
[27] = Cytotoxicity against human QGY7401 cells after 96 hrs by CCK-8 assay; type: functional, cell-based
SW480 = assay: Cytotoxicity against human SW480 cells after 96 hrs by CCK-8 assay; type: functional, cell-based; settings: SW480, 96 h
Aurora kinase B [28] = biological target: T1, Aurora kinase B; assay: Inhibition of AURKB in human HepG2 cells assessed as reduction in histone H3 expression at 5 to 20 uM after 48 hrs by Western blotting analysis; type: cell-based
HepG2 [29] = assay: Growth inhibition of human HepG2 cells at 5 to 20 uM after 96 hrs by CCK-8 assay; type: functional, cell-based
HepG2 [30] = assay: Cytotoxicity against human HepG2 cells after 96 hrs by CCK-8 assay; type: functional, cell-based; settings: HepG2, 96 h

Sequence of Glycogen synthase kinase-3 beta (P49841 whole entry): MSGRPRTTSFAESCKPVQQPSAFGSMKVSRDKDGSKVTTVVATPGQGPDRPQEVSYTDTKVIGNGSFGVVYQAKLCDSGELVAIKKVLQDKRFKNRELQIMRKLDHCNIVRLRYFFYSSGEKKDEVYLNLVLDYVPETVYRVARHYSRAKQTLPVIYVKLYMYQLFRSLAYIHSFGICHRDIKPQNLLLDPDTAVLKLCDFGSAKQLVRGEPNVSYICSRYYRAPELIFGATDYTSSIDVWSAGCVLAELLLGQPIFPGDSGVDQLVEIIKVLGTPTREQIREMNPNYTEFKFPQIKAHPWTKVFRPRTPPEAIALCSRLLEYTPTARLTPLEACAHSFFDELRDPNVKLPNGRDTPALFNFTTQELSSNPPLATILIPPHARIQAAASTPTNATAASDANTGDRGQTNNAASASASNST

For O=C1/C(=C\c2ccc(O)c(O)c2)Oc2ccccc21, the IC50 [1] was > 50 µM, the IC50 [2] was 2.63 µM and the IC50 (LoVo) was > 50 µM. For the same molecule, the IC50 [3] was 5.19 µM, the Activity (Mus musculus [4]) was “Non-toxic” and the IC50 [5] was 3.7 µM. For the same molecule, the inhibition (Aurora kinase B [6]) was “Active”, the Activity (Mus musculus [7]) was “Non-toxic” and the IC50 (SMMC-7721) was 20.3 µM. For the same molecule, the IC50 (MCF7) was 16.2 µM, the IC50 [8] was 20.4 µM and the inhibition (Aurora kinase B [9]) was “Active”. For the same molecule, the inhibition (Aurora kinase B [10]) was “Active”, the inhibition (Homo sapiens [11]) was “Active” and the Activity [12] was 1.71 g. The IC50 (HeLa [13]) was 13.4 µM, the inhibition (Homo sapiens [14]) was “Dose-dependent effect” and the Ratio (HepG2 [15]) was 2. The “growth inhibition (GI)” value (HeLa [16]) was “Active”, the IC50 [17] was 100 µM and the IC50 [18] was 26.8 µM. The Kd (Aurora kinase B [19]) was 3.06 µM, the inhibition (Aurora kinase B [20]) was “Active” and the Activity [21] was 22.14 g. For the same molecule, the inhibition (Aurora kinase B [22]) was “Active”, the IC50 (Aurora kinase B [23]) was 0.735 µM and the IC50 (SW-620) was 3.9 µM. For the same molecule, the IC50 [24] was 36.5 µM, the IC50 [25] was 78.8 µM and the Ratio (HeLa [26]) was 1.3. The IC50 [27] was 19.8 µM, the IC50 (SW480) was 50 µM and the inhibition (Aurora kinase B [28]) was “Active”. The “growth inhibition (GI)” value (HepG2 [29]) was “Active” and the IC50 (HepG2 [30]) was 8.2 µM.
